In ChEMBL document CHEMBL3045267, “Aromatic-ring-functionalised benzoxazinones in the system Oryza sativa-Echinochloa crus-galli as biorational herbicide models” (Pest Manag Sci, 2009) one finds IC50 and inhibition data, which are given here for 15 compounds.

One data set relates to Oryza sativa. The experiment in a line: Phytotoxicity against Oryza sativa (rice) assessed as inhibition of root length after 7 days at 25 degC. Format: organism-based. The note with it: 168 h.
The test system of data set [1] is Echinochloa crus-galli. The experiment in a line: Herbicidal activity against Echinochloa crus-galli (barnyard grass) assessed as inhibition of root length after 5 days at 25 degC. The following applies: 120 h. Format: functional, organism-based.
For data set [2], the system named is Echinochloa crus-galli. The experiment in a line: Herbicidal activity against Echinochloa crus-galli (barnyard grass) assessed as inhibition of root length at 64 uM after 5 days at 25 degC. The data set is classed as functional. The following applies: 120 h.
Data set [3] in a line: Phytotoxicity against Oryza sativa (rice) assessed as inhibition of root length at 64 uM after 7 days at 25 degC. The data set is classed as organism-based. The note with it: whole organism (rice plants, root growth).

Usually IC50 stands for the concentration that gives 50% inhibition. Turning to `O=C1COc2ccc(C(F)(F)F)cc2N1O` [6-CF3-D-DIBOA], the half-inhibitory concentration (IC50) amounted to 264 µM in the data set on Oryza sativa and 160 µM with Echinochloa crus-galli [1].

For `O=C1COc2c(Cl)cc(Cl)cc2N1O` [6,8-diCl-D-DIBOA], the 50% inhibitory concentration (IC50) in the data set on Oryza sativa stood at 3320 µM; in the data set on Echinochloa crus-galli [1], 281 µM.

As for `COC(=O)c1ccc2c(c1)OCC(=O)N2O` [7-MeOCO-D-DIBOA], in the data set with Echinochloa crus-galli [1], the half-inhibitory concentration (IC50) worked out at 1640 µM.

Consider `O=C1COc2c(F)cccc2N1O` [8-F-D-DIBOA], for which the IC50 worked out at 185 µM with Oryza sativa and 69 µM in the data set on Echinochloa crus-galli [1].

Turning to `COc1ccc2c(c1OC)OCC(=O)N2O` [7,8-diMeO-D-DIBOA], in the data set with Echinochloa crus-galli [1], the half-inhibitory concentration (IC50) turned out to be 690 µM.

`CCC(=O)Nc1ccc(Cl)c(Cl)c1` [PROPANIL]: the IC50 in the data set with Oryza sativa turned out to be 213 µM.

Consider `COc1ccc2c(c1)OCC(=O)N2O`, for which the half-maximal inhibitory concentration (IC50) in the data set on Echinochloa crus-galli [1] was determined as 819 µM.

Turning to `O=C1COc2ccc(F)cc2N1O` [6-F-D-DIBOA], the results for the half-inhibitory concentration (IC50) in the data set with Oryza sativa and in the data set on Echinochloa crus-galli [1] were 9 µM and 2.8 µM, respectively.

Turning to `COC(=O)c1ccc2c(c1)N(O)C(=O)CO2` [6-MeOCO-D-DIBOA], the half-inhibitory concentration (IC50) in the data set with Echinochloa crus-galli [1] stood at 229 µM.

Regarding `O=C1COc2ccc(Cl)cc2N1O` [6-Cl-D-DIBOA], the IC50 is 3 µM in the data set on Oryza sativa and 8 µM in the data set on Echinochloa crus-galli [1].

Consider `O=C1COc2ccccc2N1O`, for which the half-maximal inhibitory concentration (IC50) in the data set on Echinochloa crus-galli [1] turned out to be 360 µM.

For the compound `O=C1COc2cc(F)ccc2N1O` [7-F-D-DIBOA], the results for the 50% inhibitory concentration (IC50) in the data set with Oryza sativa and with Echinochloa crus-galli [1] were 171 µM and 130 µM, respectively.

In the case of `O=C1COc2c(ccc(F)c2F)N1O` [7,8-diF-D-DIBOA], the IC50 in the data set on Oryza sativa turned out to be 159 µM; in the data set on Echinochloa crus-galli [1], 52 µM.

A word on the inhibition: it is the change of the read-out against control, counted positive when it falls. As for `O=C1COc2c(Cl)cccc2N1O` [8-Cl-D-DIBOA], the inhibition at 64 µM with Echinochloa crus-galli [2] turned out to be 60%. In addition, in data set [3], the inhibition at 168 h, 64 µM is 10%. For the same compound, the IC50 in the data set on Oryza sativa was determined as 501 µM; in the data set on Echinochloa crus-galli [1], 44 µM.

With `COc1ccc2c(c1)N(O)C(=O)CO2` [6-MeO-D-DIBOA], the concentration for half-maximal inhibition (IC50) with Echinochloa crus-galli [1] was determined as 159 µM.
